Measured values taken from patent US20220185832A1, “CD73 INHIBITORS” (BioArdis LLC, priority 2019, published 2022).
pIC50: −log10 of the molar value.

Legend:
[1] = biological target: T1, Recombinant Human 5′-Nucleotidase (CD73) (Homo sapiens, UniProt P21589); experiment: CD73 Enzyme Assay; format: biochemical; conditions: 0.5 nM human CD73, 30 μM AMP, PiColorLock phosphate detection, OD 635 nm; read-out: Potency (IC50)
T1 construct: CHO derived CD73 (Trp27-Lys547), with a C-terminal 6-His tag; 6-His (C); purchased R&D 5795-EN; host or cells: CHO
T1 sequence (P21589 27-547): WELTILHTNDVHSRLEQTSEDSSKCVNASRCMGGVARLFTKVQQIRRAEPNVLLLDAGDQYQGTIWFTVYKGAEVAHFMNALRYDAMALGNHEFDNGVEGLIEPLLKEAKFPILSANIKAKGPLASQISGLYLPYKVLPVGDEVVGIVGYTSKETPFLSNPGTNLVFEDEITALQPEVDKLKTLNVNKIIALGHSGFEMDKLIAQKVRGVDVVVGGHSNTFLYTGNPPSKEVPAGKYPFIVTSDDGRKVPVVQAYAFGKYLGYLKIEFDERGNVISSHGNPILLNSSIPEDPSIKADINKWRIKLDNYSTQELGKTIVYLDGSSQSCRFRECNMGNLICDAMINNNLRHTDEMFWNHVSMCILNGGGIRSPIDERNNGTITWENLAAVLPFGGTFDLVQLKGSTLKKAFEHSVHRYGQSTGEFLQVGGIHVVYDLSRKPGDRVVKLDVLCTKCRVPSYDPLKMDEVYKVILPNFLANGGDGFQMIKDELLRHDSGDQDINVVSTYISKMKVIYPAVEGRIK
Procedure, shortened: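 CHO-derived human CD73 (Trp27-Lys547, C-terminal His tag; 0.5 nM) preincubated with compound 15 min at 25° C in Tris pH 7.5 with MgCl2 and Tween-20. Reaction with 30 μM AMP ran 20 min at 37° C; released phosphate read by malachite green at 635 nm, IC50 from 4-parameter logistic fit.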

[2] = biological target: T2, Cell surface CD73 of U87 MG human glioblastoma cells (Homo sapiens, UniProt P21589); experiment: CD73 Cellular Assay; format: cell-based; conditions: 5000 cells per well, 30 μM AMP, PiColorLock phosphate detection in supernatant, read-out: Potency (IC50)
T2 construct: Cell surface CD73 catalyzes the conversion of adenosine monophosphate (AMP) to adenosine and inorganic phosphate; endogenous in cells; host or cells: U87 MG human glioblastoma cells
T2 sequence (P21589 27-549): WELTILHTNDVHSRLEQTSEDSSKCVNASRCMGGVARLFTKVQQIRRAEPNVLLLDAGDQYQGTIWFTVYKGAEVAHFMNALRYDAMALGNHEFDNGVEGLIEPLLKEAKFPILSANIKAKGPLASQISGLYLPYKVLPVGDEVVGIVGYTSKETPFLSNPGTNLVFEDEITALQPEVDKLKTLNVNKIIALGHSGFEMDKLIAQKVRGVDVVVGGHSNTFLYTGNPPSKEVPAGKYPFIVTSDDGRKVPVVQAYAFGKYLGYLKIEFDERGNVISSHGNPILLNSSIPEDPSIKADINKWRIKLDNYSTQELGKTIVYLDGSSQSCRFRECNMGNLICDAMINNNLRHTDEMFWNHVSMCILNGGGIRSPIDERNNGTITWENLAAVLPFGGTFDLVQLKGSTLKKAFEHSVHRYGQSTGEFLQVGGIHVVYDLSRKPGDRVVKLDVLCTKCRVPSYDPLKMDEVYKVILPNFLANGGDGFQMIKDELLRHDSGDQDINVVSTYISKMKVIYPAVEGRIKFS
Protocol: Cell surface CD73 catalyzes the conversion of adenosine monophosphate (AMP) to adenosine and inorganic phosphate. U87 MG human glioblastoma cells express high level of CD73. Cells are treated with compounds in a 96-well assay plate and supernatants are collected into a 384-well detection plate. The concentration of inorganic phosphate (Pi) in the supernatants is determined using the phosphate detection reagent, PiColorLock™ (Innova Bioscience, Cat #303-0125) following the manufacturer's instructions.
Briefly, on the day of the assay, U87 MG cells were harvested and resuspended in assay buffer which consisted of 20 mM HEPES, pH=7.4, 137 mM NaCl, 5.4 mM KCl, 1.3 mM CaCl2, 4.2 mM NaHCO3 and 0.1% glucose. To test the effect of compounds on cellular CD73 enzymatic activity, 500 nL/well of compounds dissolved in DMSO were added to a 96-well TC-treated microplate (Corning #3599). Next, 80 μL/well of U87 MG cells in assay buffer were added to assay plate. After 30 minutes of incubation in an atmosphere of 5% CO2 at 37° C., 20 μL/well of 150 μM AMP (Adenosine 5′-monophosphate monohydrate, Sigma, Cat #01930) in assay buffer was added to assay plate. Final assay conditions consisted of 5000 cells per well in 0.5% DMSO and 30 μM AMP substrate. After 50 minutes of incubation in an atmosphere of 5% CO2 at 37° C., 50 μL/well of supernatant was transferred to the 384-well detection plate (Corning® NBSTM 384 well plates, Cat #3640). Meanwhile “Gold mix” was prepared shortly before use by adding 1/100 volume of accelerator to the PiColorLock™ Gold reagent. 12 μL/well of the “Gold mix” was added to detection plate containing 50 μL/well of supernatant and incubated at 25° C. for 5 minutes. 5 μL/well stabilizer was added to the detection plate and incubated at 25° C. for 30 minutes. The absorbance at 635 nm was measured on a Spark 10M instrument (TECAN).
The percent (%) inhibition at each concentration of a compound was calculated relative to the OD value in the Max and Min control wells contained within each assay plate. The Max control wells contained cells and substrate as 0% inhibition, and the Min control wells only contained cells as 100% inhibition. The concentrations and percent inhibition values for a test compound are plotted and the concentration of the compound required to achieve 50% inhibition (IC50) was determined with a four-parameter logistic dose response equation.

Row | SMILES | pIC50 [1] | pIC50 [2]
1 | O=P(O)(O)CP(=O)(O)OC[C@H]1O[C@@H](c2ccc3c(NCc4ccccc4Cl)nc(Cl)nc3c2)[C@H](O)[C@@H]1O [Compound 23, (((((2R,3S,4R,5S)-5-(2-chloro-4((2-chlorobenzyl)amino)quinazolin-7-yl)-3,4-dihydroxytetrahydrofuran-2-yl)methoxy)(hydroxy)phosphoryl)methyl)phosphonic acid] | > 8.00 | > 8.00
2 | O=P(O)(O)CP(=O)(O)OC[C@H]1O[C@@H](c2ccc3c(NC4CCc5ccccc54)nc(Cl)nc3c2)[C@H](O)[C@@H]1O (stereo partly drawn) [Compound 25, [({[(2R,3S,4R,5S)-5-[2-chloro-4-(2,3-dihydro-1H-inden-1-ylamino)quinazolin-7-yl]-3,4-dihydroxyoxolan-2-yl]methoxy}(hydroxy)phosphoryl)methyl]phosphonic acid] | > 8.00 | > 8.00
3 | O=P(O)(O)CP(=O)(O)OC[C@H]1O[C@@H](c2ccc3c(NCC4CCCC(O)C4)nc(Cl)nc3c2)[C@H](O)[C@@H]1O (stereo partly drawn) [Compound 28, (((((2R,3S,4R,5S)-5-(2-chloro-4-(((3-hydroxycyclohexyl)methyl)amino)quinazolin-7-yl)-3,4-dihydroxytetrahydrofuran-2-yl)methoxy)(hydroxy)phosphoryl)methyl)phosphonic acid] | > 8.00 | 6.00 to 7.00
4 | O=P(O)(O)CP(=O)(O)OC[C@H]1O[C@@H](c2ccc3c(NC4CCCCC4)nc(Cl)nc3c2)[C@H](O)[C@@H]1O [Compound 31, (((((2R,3S,4R,5S)-5-(2-chloro-4-(cyclohexylamino)quinazolin-7-yl)-3,4-dihydroxytetrahydrofuran-2-yl)methoxy)(hydroxy)phosphoryl)methyl)phosphonic acid] | > 8.00 | > 8.00
5 | O=P(O)(O)CP(=O)(O)OC[C@H]1O[C@@H](c2ccc3c(NC4CCCC4)ncnc3c2)[C@H](O)[C@@H]1O [Compound 46, [({[(2R,3S,4R,5S)-5-[4-(cyclopentylamino)quinazolin-7-yl]-3,4-dihydroxyoxolan-2-yl]methoxy}(hydroxy)phosphoryl)methyl]phosphonic acid] | > 8.00 | < 6.00
